The test system of this series is S. aureus strain ATCC 33591 (MRSA-strain). The procedure: Organ samples were thawed and homogenized using a Polytron tissue homogenizer after addition of 3 mL isotonic sodium chloride solution. First, a calibration curve was prepared by spiking different concentrations of CorA into the respective matrix from CD-1 mice. Caffeine was used as an internal standard. In addition, quality control samples (QCs) were prepared for CorA for every matrix. For PD samples, calibration curve and QCs were prepared for levofloxacin using the same protocol. The following extraction procedure was used: 50 µL of a sample (calibration sample, QCs, PK or PD sample) was extracted with 20 µL of acetic acid in water (10/90 (v/v)) and 30 µL acetonitrile for 5 min at 800 rpm on an Eppendorf MixMate® vortex mixer. Then, samples were spun down for 20 min at 4 °C and 4000 rpm and supernatants were transferred to new Greiner 96-well V-bottom plates. Samples were analyzed using an Agilent 1290 Infinity II HPLC system (Waldbronn, Germany) coupled to an AB Sciex QTrap6500plus mass spectrometer (Darmstadt, Germany). LC conditions were as follows: column: Agilent Zorbax Exlipse Plus C18, 50 × 2.1 mm, 1.8 µm; temperature: 30 °C; injection volume: 5 µL per sample; flow rate: 800 µL/min. Samples were run under buffered conditions: A: 95% water + 5% acetonitrile + 5 mM ammonium acetate + 40 µL/L acetic acid; B: 95% acetonitrile + 5% water + 5 mM ammonium acetate + 40 µL/L acetic acid. The gradient was as follows: 99% A at 0 min, 99% A until 0.1 min, 99–0% A from 0.1 min to 4.0 min, 0% A until 4.5 min. Mass transitions for controls and compounds are depicted in Table S1. Peaks of PK samples were quantified using the calibration curve. The accuracy of the calibration curve was determined using QCs independently prepared on different days. PK parameters were determined using a non-compartmental analysis with PKSolver.
Inocula were prepared as described previously with the modification that isotonic sodium chloride solution was used instead of PBS [25]. For the neutropenic thigh and the neutropenic lung infection model the S. aureus strain ATCC 33591 (MRSA-strain) was used. For the neutropenic lung infection model an inoculum of 2 × 10^9 cfu/mL was used. For the neutropenic thigh infection model an inoculum of 7 × 10^5 cfu/mL was used.
The model was conducted as described previously. In brief, the following groups were used: (1) inoculum control group with terminal endpoint at 2 h post infection to determine baseline inoculum in vivo; (2) vehicle-treated group receiving 20 mg/kg SC tramadol and vehicle (PEG400/PBS (80:20 (v/v)); (3) levofloxacin group 5 mg/kg IP three times a day (TID) (t = 2, 6 and 10 h post infection); (4) CorA 60 mg/kg IP TID (t = 2, 6 and 10 h post infection) and (5) CorA 100 mg/kg IP BID (t = 2 and 6 h post infection). The endpoint for groups no. 2–5 was 24 h post infection. A solution of […].

Read-outs that look alike come from different tables or passages of the source.

With `C/C=C/C/C=C(\C)C(O)CC/C(C)=C/C=C(\C)C(=O)c1c(O)cc([C@H](C)CC/C=C/NC(=O)OC)oc1=O` (stereo partly shown) [CorA, Corallopyronin A], the “terminal thigh concentrations lower than in the group at 100 mg/kg IP BID” value (60 mg/kg IP BID (so in the source) vs 100 mg/kg IP BID, thigh) is “more than 10 fold”. Besides, the “terminal level in lung tissue” value (60 mg/kg IP TID) is on record as “not detected” and the “terminal level in lung tissue” value (100 mg/kg IP BID) is “detected at low levels”. The “bacterial burden in lung tissue” value (60 mg/kg IP TID, 24 h post infection, secondary seeding, vs vehicle) is “did not show any effect”. In addition, the “bacterial burden in thigh tissue” value (60 mg/kg IP TID, 24 h post infection, vs vehicle) is listed as “did not show any effect”. For the same molecule, the “terminal liver levels lower than at 60 mg/kg IP TID” value (100 mg/kg IP BID vs 60 mg/kg IP TID, liver) was “more than 5 fold”. Further, for the setting “100 mg/kg IP BID, 24 h post infection”, the “bacterial burden in thigh” value is “significant reduction”.

(Values after publication PMC9860980, “Pharmacokinetics and Pharmacodynamics (PK/PD) of Corallopyronin A against Methicillin-Resistant Staphylococcus aureus” (Pharmaceutics, 2022).)
